From US5985603A, “P2x receptor DNA and protein sequence” (Glaxo Group Limited, priority 1994, dated 1999)
Counter-ions that a name gives are not always drawn.

Legend:
[1] = molecular target: T1, hP2X (Homo sapiens, UniProt P51575); test: inward currents evoked by purinoceptor agonists in Xenopus oocytes expressing hP2X; format: cell-based; settings: for full agonist activity: concentration-response curves; for agonist profile (rank order): oocytes expressing hP2X; for relative potency: relative to ATP, from EEC50
T1 construct: expressed in transfected cells; host or cells: Xenopus oocytes injected with in vitro transcribed RNA
T1 sequence (P51575 1-399): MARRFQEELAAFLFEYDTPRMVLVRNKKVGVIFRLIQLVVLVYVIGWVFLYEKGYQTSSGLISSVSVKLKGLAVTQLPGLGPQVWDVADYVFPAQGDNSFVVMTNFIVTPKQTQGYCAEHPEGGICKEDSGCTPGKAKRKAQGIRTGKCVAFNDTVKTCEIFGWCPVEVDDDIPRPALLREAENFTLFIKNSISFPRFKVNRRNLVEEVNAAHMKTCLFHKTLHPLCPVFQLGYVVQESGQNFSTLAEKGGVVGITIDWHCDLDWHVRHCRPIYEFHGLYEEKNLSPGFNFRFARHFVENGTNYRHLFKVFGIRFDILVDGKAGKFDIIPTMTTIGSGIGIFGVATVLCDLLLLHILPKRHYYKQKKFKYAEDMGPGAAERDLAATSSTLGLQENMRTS
Description: Human urinary bladder P2X cDNA, subcloned into the pBKCMV expression vector, was linearized with Notl, and transcribed in vitro with T3 polymerase in the presence of cap analogue m7G(5')ppp(5')G. Defolliculated Xenopus oocytes (Bertrand et al, Electrophysiology of neuronal nicotinic acetylcholine receptors expressed in Xenopus oocytes following nuclear injection of genes or cDNAs Meth Neurosci 4: 174-193 (1991)) were injected with 50 ng of human P2X in vitro transcribed RNA, and incubated at 18° C. for 2-6 days in the ND96 solution (mM): NaCl96, KCl2, MgCl2 1, CaCl2 2, sodium pyruvate 5, HEPES 5, ph 7.6-7.5, penicillin (10 U/ml), and streptomycin (10 μg/ml).
Oocytes were placed in a 1 ml chamber and superfused at 2-3 ml/min with ND96 solution with 0.1 mM BaCl2 replacing the 2 mM CaCl2 to prevent activation of endogenous calcium-activated chloride currents (Barish, A transient calcium-dependent chloride current in the immature Xenopus oocytes J Physiol 342: 309-325 (1983)). Currents were measured using a two-electrode voltage-clamp amplifier (Geneclamp Axon Instruments)at a holding potential of -60 mV. Microelectrodes were filled with 3 M KCl (0.5-2 M.OMEGA.). Data were collected using PClamp software (Axon Instruments). […] Antagonists were applied both in the superfusate and together with ATP in the U-tube solution.
Concentration response curves for purinoceptor agonists were fitted with a Hill slope of 1. […] Data are presented throughout as mean ± SEM for a given number of oocytes.

[2] = system: P2X-purinoceptor; settings: cited from earlier work
[3] = molecular target: T2, rat vas/human bladder P2X cDNA clone (Homo sapiens, UniProt P51575); test: functional properties of cloned P2X receptors (electrical recordings): bladder; format: cell-based; settings: Table A; for Ca++ block, bladder: extracellular calcium 30 mM in text
T2 construct: expressed in transfected cells; host or cells: HEK293 cells (oocytes are also named for the functional characterisation)
T2 sequence (P51575 1-399): T1 sequence (P51575 1-399)
Description: DNA concentration used was 1 mg/2 ml medium placed into a 35 mm petri dish containing four 11 mm diameter coverslips on which HEK cells were placed at 10,000 cells per coverslip. […] Currents were recorded from HEK 293 cells using whole-cell recording methods and the AXOPATCH™ 200 amplifier (Axon Instruments); patch pipettes (5 M.OMEGA.) contained (mM) Cs or K aspartate 140, NaCl 5, EGTA 11, HEPES 5. […] All recordings performed at room temperature. Data acquisition and analysis were performed using pCLAMP™ and AXOGRAPH™ software (Axon Instruments). […] ATP was applied by U-tube typically for 1 s; data was sampled at 5 kHz in 2 s segments beginning 300 ms prior to onset of agonist (ATP) application and filtered at 1 kHz.

[4] = molecular target: T3, PC12 P2X receptor (Rattus norvegicus, UniProt P49653); test: functional properties of cloned P2X receptors (electrical recordings): PC12; format: cell-based; settings: Table A; for Ca++ block, PC12: extracellular calcium 30 mM in text
T3 construct: host or cells: HEK293 cells (oocytes are also named for the functional characterisation of clone 3)
T3 sequence (P49653 1-472): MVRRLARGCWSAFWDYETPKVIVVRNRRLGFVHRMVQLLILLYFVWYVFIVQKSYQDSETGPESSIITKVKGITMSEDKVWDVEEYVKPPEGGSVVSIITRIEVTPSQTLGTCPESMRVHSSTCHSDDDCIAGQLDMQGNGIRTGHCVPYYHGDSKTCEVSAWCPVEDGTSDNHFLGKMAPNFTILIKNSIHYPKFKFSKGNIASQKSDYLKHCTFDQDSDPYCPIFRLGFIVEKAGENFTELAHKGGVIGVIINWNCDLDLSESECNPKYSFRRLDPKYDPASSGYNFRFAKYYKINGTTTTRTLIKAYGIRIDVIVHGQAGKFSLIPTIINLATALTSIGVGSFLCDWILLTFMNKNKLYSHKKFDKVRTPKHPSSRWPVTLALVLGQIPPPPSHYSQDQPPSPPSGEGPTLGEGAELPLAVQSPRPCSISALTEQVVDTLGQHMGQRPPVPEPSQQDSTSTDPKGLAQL
Description: (§1) HEK 293 cells were transfected by the lipofectin method (Felgner et al., Proc. Nat'l. Acad. Sci. USA 84 7413-7417 (1987)) with P2X -plasmid. DNA concentration used was 1 mg/2 ml medium placed into a 35 mm petri dish containing four 11 mm diameter coverslips on which HEK cells were placed at 10,000 cells per coverslip. […] Currents were recorded from HEK 293 cells using whole-cell recording methods and the AXOPATCH™ 200 amplifier (Axon Instruments); patch pipettes (5 M.OMEGA.) contained (mM) Cs or K aspartate 140, NaCl 5, EGTA 11, HEPES 5. The external solution was (mM) NaCl 150, KCl2, CaCl2 2, MgCl2 1, HEPES 5 and glucose 11; the pH and osmolarity of both solutions were maintained at 7.3 and 305 mosmol/l respectively. All recordings performed at room temperature. Data acquisition and analysis were performed using pCLAMP™ and AXOGRAPH™ software (Axon Instruments). […] The pH and osmolarity of the solutions were 7.4 and 295 mosmol/l respectively. For single channel measurements, a […]™ 500 amplifier and outside-out recording methods were used (Adelman et al., Neuron 9 209-216 (1992)). Wax-coated patch pipettes (5-10 M.OMEGA.) contained (mM) K-gluconate 115, HEPES 5, BAPTA 5 and MgCl2 0.5, external solution was 96 mM NaCl, 2 mM KCl, 1.8 mM CaCl2, 1 mM MgCl2, 5 mM Hepes pH 7.6, and 5 mM sodium pyruvate.
(§2) The functional characterisation of the clone illustrated in FIG. 2 (referred to herein as clone 3) was carried out by electrical recordings from transfected HEK293 cells and from oocytes injected with the in vitro transcribed RNA, as described in Example 4 for the rat vas deferens P2X receptor. Table A summarizes the main properties of clone 3 as compared to those of rat vas/human bladder cDNA clone, and the PC12 cDNA clone (provided by David Julius and Tony Brake of the University of California at San Francisco).

[5] = molecular target: T4, rat superior cervical ganglion P2X receptor (clone 3) (Rattus norvegicus, UniProt P51577); test: functional properties of cloned P2X receptors (electrical recordings): clone 3; format: cell-based; settings: for Ca++ block, clone 3: extracellular calcium 30 mM in text
T4 construct: The insert appeared to be a full length cDNA; expressed in transfected cells; host or cells: HEK293 cells transfected with pcDNA3 construct p464 (also oocytes injected with in vitro transcribed RNA)
T4 sequence (P51577 1-388): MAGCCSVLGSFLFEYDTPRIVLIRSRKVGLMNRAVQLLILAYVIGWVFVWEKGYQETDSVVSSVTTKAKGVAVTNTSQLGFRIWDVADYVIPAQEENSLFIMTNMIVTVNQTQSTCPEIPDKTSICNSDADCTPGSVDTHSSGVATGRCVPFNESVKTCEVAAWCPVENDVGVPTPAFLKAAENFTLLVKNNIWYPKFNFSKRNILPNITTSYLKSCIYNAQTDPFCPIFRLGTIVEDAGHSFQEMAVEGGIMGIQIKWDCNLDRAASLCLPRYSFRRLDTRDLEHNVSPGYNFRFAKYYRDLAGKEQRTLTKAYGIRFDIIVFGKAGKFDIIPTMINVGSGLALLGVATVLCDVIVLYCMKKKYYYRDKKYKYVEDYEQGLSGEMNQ
Description: as §1, §2

[6] = system: hP2X mRNA; test: induction of hP2X mRNA in HL60 cells by Northern blot; format: cell-based, human; settings: 1.8 and 2.6 kb bands
Description: HL60 cells (human promyelocytes ATCC CCL240) were passaged twice weekly in RPMI-1640 supplemented with 25 mnM HEPES, 2 mM Glutamax II, and 10% heat-inactivated fetal calf serum (GIBCO BRL) . For each experiment 33×10^6 cells were resuspended at 2.5×10^5 cells/ml in medium containing either phorbol mystate acetate (100 nM), 1. 1% DMSO, or dibutyryl cAMP (200 uM) (SIGMA) for the indicated times.
PolyA^+ RNAs were obtained from Clontech Laboratories Inc. (Palo Alto) except for the urinary bladder and HL60 mRNA which were prepared as described (Valera et al (1994)--supra) . Samples were quantified by measuring the O.D. at 260 nm, and by staining the membrane with methylene blue. The RNA were fractionated on a 1% agarose--6% formaldehyde gel and electroblotted to a non-charged nylon membrane (BDH). Prehybridisation at 68° C. was performed for 6 hours in hybridisation buffer (50% formamide, 5× SSC, 2% blocking buffer (Boehringer Mannheim), 0.1%6 laurolylsarcosine, 0.02% SDS). Hybridisation was overnight at 68° C. in fresh hybridisation buffer with a digoxigenin-UTP labelled riboprobe (100 ng/ml) corresponding to the entire hP2 × sequence. The membrane was washed at 68° C.; twice in 2× SSC+0.1% SDS, and twice in 0.1× SSC+0.1% SDS. Chemiluminescent detection of hybridisation was carried at room temperature as follows: the membrane was rinsed 5 min in buffer B1 (0.1 M maleic acid, 0.15 M NaCl, pH 7.5), saturated for 1 hour in 1% blocking buffer (B2), incubated 30 min with anti-digoxigenin-antibody alkaline phosphatase conjugated (750 u/ml, Boehringer Mannheim) diluted 1:15000 in B2, washed in B1+0.30% tween 20 (1× 5 min, 1× 15 min, 1× 1 h), equilibrated for 5 min in buffer B3 (0.1 M Tris HCl pH 9.5, 0.1 M NaCl, 50 mM MgCl2), incubated 45-60 sec in lumigen PPD (Boehringer Mannheim) diluted 1:100 in B3. The humid membrane was sealed in a plastic bag, incubated 15 min at 37° C., and exposed 15 to 20 min to Hyperfilm-ECL (Amersham). […]

[7] = listed as Extracellular calcium

Row | Structure (SMILES) | EC50 [1] [µM] | full agonist activity [1] | agonist profile (rank order) [1] | relative potency [1] | agonist potency order in whole tissue studies [2] | induction of P2X mRNA in HL60 cells [6] | also measured
1 | CSc1nc(N)c2ncn([C@@H]3O[C@H](COP(=O)(O)OP(=O)(O)OP(=O)(O)O)[C@@H](O)[C@H]3O)c2n1 [2MeSATP, 2-MethylthioATP tetra sodium salt] | 0.6 ± 0.1 | full agonists | 2MeSATP≥ATP>α,β,-meATP | 1.36 | α,β,-meATP >>2MeSATP≥ATP |  | comparison of concentration-effect curves ([1]; ATP, 2MeSATP and 2-chloro-ATP): superimposable
2 | [Ca+2] [Ca^++, calcium] |  |  |  |  |  |  | Ca++ block, bladder [3]: none; Ca++ block, bladder [3, 7]: does not block current; Ca++ block, PC12 [4]: very strong; Ca++ block, PC12 [4, 7]: inhibits the inward current; Ca++ block, clone 3 ([5]; Table A): intermediate; Ca++ block, clone 3 ([5]; Table A, listed as Extracellular calcium): intermediate in sensitivity
3 | C[S+](C)[O-] [DMSO] |  |  |  |  |  | produced an increase in P2X mRNA | 
4 | CCCC(=O)Nc1ncnc2c1ncn2[C@@H]1O[C@@H]2COP(=O)(O)O[C@H]2[C@H]1OC(=O)CCC [dibutryl cAMP, dibutyryl cAMP] |  |  |  |  |  | produced an increase in P2X mRNA | 
5 | CCCCCCCCCCCCCC(=O)O[C@@H]1[C@@H](C)[C@@]2(O)[C@@H](C=C(CO)C[C@]3(O)C(=O)C(C)=C[C@@H]23)[C@@H]2C(C)(C)[C@]12OC(C)=O [phorbol diesters, phorbol mystate acetate] |  |  |  |  |  | produced an increase in P2X mRNA | 
6 | Nc1ncnc2c1ncn2[C@@H]1O[C@H](COP(=O)(O)CP(=O)(O)OP(=O)(O)O)[C@@H](O)[C@H]1O [α,β-meATP, α,β-methylene ATP lithium salt] | 3.6 ± 1.6 | full agonists | 2MeSATP≥ATP>α,β,-meATP | 0.23 | α,β,-meATP >>2MeSATP≥ATP |  | EC50 ([3]; parameter (EC50) not given, read-out: agonist profile, bladder): 3 µM; EC50 ([4]; parameter (EC50) not given, read-out: agonist profile, PC12): > 100 µM; EC50 ([5]; Table A, parameter (EC50) not given, read-out: agonist profile, clone 3): > 100 µM; agonist action ([5]; clone 3 (FIG. 14)): little or no agonist action
